Tests used:
Type in all cases: cell-based
[1] = test system: transglutaminase; assay: Transglutaminase protein expression (western blot) in HaCaT human keratinocytes; conditions: HaCaT cells, fucosterol 5, 10, 20 μM, 24 hrs, FIG. 10
Procedure: (§1) HaCaT human keratinocytes were incubated in a Dulbecco's Modified Eagle's Media (DMEM) medium including 10% fetal bovine serum and then put in a 6-well plate with 2×10^5 cell/ml (the final volume of 3 ml). After being incubated for 24 hrs, the medium was removed and fucosterol which was dissolved in the DMEM medium was treated at 5, 10, and 20 μM concentrations, respectively. After 24 hrs, the HaCaT human keratinocytes were lysed with a NP40 buffer solution including proteinase inhibitor cocktail. The protein amount extracted from the HaCaT human keratinocytes was quantified by using a Bradford method. The sample was boiled for 5 min and then the same amount of protein ([…]) was isolated by electrophoresis with 10% SDS-PAGE. The isolated proteins after electrophoresis were transferred to a nitrocellular membrane and western blot was performed. A primary antibody was reacted and the nitrocellular membrane was washed three times by using Tris-buffer saline tween20 (TBST) for 10 min. In this case, the kind and the dilution of the primary antibody used in the present invention is 1:1000. In a secondary antibody reaction, a secondary antibody was put in the membrane performing the primary antibody reaction and reacted for 2 hrs at room temperature. In this case, a dilution of the secondary antibody was 1:5000. […]

[2] = test system: caspase 14; assay: Caspase 14 protein expression (western blot) in HaCaT human keratinocytes; conditions: HaCaT cells, fucosterol 5, 10, 20 μM, 24 hrs, FIG. 12
Procedure: as §1

[3] = test system: MITF (microphthalmia transcription factor); assay: MITF mRNA expression (RT-PCR) in B16F10 melanoma cells; conditions: 200 nM α-MSH, fucosterol 5 and 20 μM, 24 hrs, FIG. 7
Procedure: B16F10 melanoma cells were incubated in a DMEM medium including 10% fetal bovine serum and then added in a 6-well plate with 2.5×10^5 cell/mL (the final volume of 3 mL). After being incubated for 24 hrs, the medium was removed and fucosterol which was dissolved in the DMEM medium including 200 nM α-MSH was treated at 5 and 20 μM of concentrations, respectively. After 24 hrs, the total RNA was isolated by using a TRIzol reagent (Invitrogen, Carlsbad, Calif., USA). The isolated total RNAs were quantified by using a nano-drop (ND-1000). The quantified RNA was synthesized to cDNA by using reverse transcriptase and a PCR machine (Applied biosystems, Foster city, CA, USA) and then the PCR was performed with specific primers below.
As the PCR result, the amplified cDNA was isolated with a 1.5% agarose gel by electrophoresis and cDNA bands were verified by using a G:BOX EF imaging system (Syngene, Cambridge, UK), and the result was illustrated in FIG. 7.

[4] = test system: loricrin; assay: Loricrin protein expression (western blot) in HaCaT human keratinocytes; conditions: HaCaT cells, fucosterol 5, 10, 20 μM, 24 hrs, FIG. 10
Procedure: as §1

[5] = test system: filaggrin; assay: Filaggrin protein expression (western blot) in HaCaT human keratinocytes; conditions: HaCaT cells, fucosterol 5, 10, 20 μM, 24 hrs, FIG. 12
Procedure: as §1

[6] = test system: TRP-1 (tyrosinase-related protein 1); assay: TRP-1 protein expression (western blot) in B16F10 melanoma cells; conditions: 200 nM α-MSH, fucosterol 5 and 20 μM, 24 hrs, FIG. 6
Procedure: B16F10 melanoma cells were incubated in a DMEM medium including 10% fetal bovine serum and then added in a 6-well plate with 2.5×10^5 cell/mL (the final volume of 3 mL). After being incubated for 24 hrs, the medium was removed and fucosterol which was dissolved in the DMEM medium including 200 nM α-MSH was treated at 5 and 20 μM of concentrations, respectively. The cells after 24 hrs were lysed with a NP40 buffer solution including proteinase inhibitor cocktail and the protein amount extracted from the cells was quantified by using a Bradford reagent. The quantified protein was boiled for 5 min and isolated by electrophoresis with 10% SDS-PAGE to transfer the isolated proteins to a nitrocellular membrane. A primary antibody of […] and […] was diluted in 2.5% bovine serum albumin at a ratio of 1:1000 and reacted with the protein transferred to the nitrocellular membrane for 20 hrs at room temperature. The primary antibody was reacted and then the nitrocellular membrane was washed three times by using the TBST for 10 min. […] As the measured result, the protein expression of […] and […] was verified and it was shown that the loading amount of the protein was constant by α-tubulin.

[7] = test system: HaCaT human keratinocytes; assay: Cornified envelope formation in HaCaT human keratinocytes (absorbance 340 nm); conditions: HaCaT cells, fucosterol 5, 10, 20 μM, 96 hrs, p<0.05, FIG. 8
Procedure: HaCaT human keratinocytes were incubated in a Dulbecco's Modified Eagle's Media (DMEM) medium including 10% fetal bovine serum and then put in a 6-well plate with 2×10^5 cell/ml (the final volume of 3 ml). After being incubated for 24 hrs, the medium was removed and fucosterol which was dissolved in the DMEM medium was treated at 5, 10, and 20 μM concentrations, respectively. After incubation for 96 hrs, the incubated medium was removed from the 6-well plate to collect a cell pellet, and the cell pellet was transferred to a 1.5 mL tube and centrifuged for 10 min at 10,000 rpm to remove a supernatant. The obtained pellet was added with a Tris buffer solution including 2% sodium dodecyl sulfate (SDS) and 20 mM dithiothreitol (DTT) and boiled, and the absorbance was measured at 340 nm to evaluate the effect on cornified envelope formation. According to Equation 1 below, the formation degree of the cornified envelope compared with the control group was calculated and the result was illustrated in FIG. 8. Cornified envelope formation amount (%) compared with control group=absorbance of each test material/absorbance of control group×100 […]

C/C=C(\CC[C@@H](C)[C@H]1CC[C@H]2[C@@H]3CC=C4C[C@@H](O)CC[C@]4(C)[C@H]3CC[C@]12C)C(C)C [fucosterol]
protein expression of transglutaminase [1]: increased
protein expression of caspase 14 [2]: increased
mRNA amount of MITF [3]: reduced
protein expression of loricrin [4]: increased
protein expression of filaggrin [5]: increased
protein expression of TRP-1 [6]: reduced
cornified envelope formation [7]: excellent cornified envelope formation effect

Reference: patent US9956157B2, “Composition containing fucosterol for skin whitening or moisturizing” (INDUSTRY-ACADEMIC COOPERATION FOUNDATION, YONSEI UNIVERSITY, priority 2014, dated 2018)
